In brackets after ≈: the same amount, converted by molar mass.
Key:
Type in all cases: functional
[1] = system: Bifidobacterium thermophilum; assay: Antibacterial activity against Bifidobacterium thermophilum B0219 by broth microdilution method
[2] = system: Bifidobacterium thermophilum; assay: Antibacterial activity against Bifidobacterium thermophilum B0241 by broth microdilution method
[3] = system: Bifidobacterium thermophilum; assay: Antibacterial activity against Bifidobacterium thermophilum B0242 by broth microdilution method
[4] = system: Bifidobacterium thermophilum; assay: Antibacterial activity against Bifidobacterium thermophilum B0253 by broth microdilution method
[5] = system: Bifidobacterium thermophilum; assay: Antibacterial activity against Bifidobacterium thermophilum B0256 by broth microdilution method
[6] = system: Lactobacillus johnsonii; assay: Antibacterial activity against Lactobacillus johnsonii L0077 by Etest

For `CN(C)[C@@H]1C(O)=C(C(N)=O)C(=O)[C@@]2(O)C(O)=C3C(=O)c4c(O)cccc4[C@@](C)(O)[C@H]3C[C@@H]12` [TETRACYCLINE], which MIC [1] is on record?
The MIC was 128 µg/mL (≈ 288 µM).

What about the MIC [2] of the same molecule?
Its MIC is 128 µg/mL (≈ 288 µM).

And the MIC [3]?
The MIC was 256 µg/mL (≈ 576 µM).

And the MIC [4]?
Its MIC is 128 µg/mL (≈ 288 µM).

And the MIC [5]?
Its MIC is 128 µg/mL (≈ 288 µM).

What about the MIC [6] of the same molecule?
The MIC was over 256 µg/mL.

— ChEMBL document CHEMBL1151462, “Mosaic tetracycline resistance genes and their flanking regions in Bifidobacterium thermophilum and Lactobacillus johnsonii” (2008)
